# Measurements taken from patent US9321750B2, “ROR modulators and their uses” (INNOV17 LLC, priority 2012, dated 2016).
# Columns and labels:
# RORγ LBD [1] = target: T1, RORγ LBD (Homo sapiens (Human), UniProt P51449); assay: RORγ LBD binding (Human RORγ Assay System, INDIGO Biosciences); conditions: 0.5% DMSO
# Description: Compound binding to the human RORγ LBD was assessed using the Human RORγ Assay System (INDIGO Biosciences Inc.) as per manufacturer's instructions.
# IL-17F [2] = assay: Real-time qRT-PCR in TH17 cells: IL-17F gene expression; type: cell-based, human; design: key: A: No change in gene expression observed relative to DMSO treated Th17 cells; B: Decreased gene expression observed relative to DMSO treated Th17 cells; C: Increased gene expression observed relative to DMSO treated Th17 cells
# Description: (§1) Peripheral blood mononuclear cells (PBMCs) were sourced from freshly prepared leukocyte enriched plasma (buffy coat) from healthy volunteers from which PBMCs were isolated by density gradient centrifugation using Ficoll-Paque™ PLUS (GE Healthcare). Naïve CD4+ T cells were isolated using the Naïve CD4+ T cell Isolation Kit II (Miltenyi Biotec) as per manufacturer's instructions. CD4+ T cells were plated at 5×10^4 cells/well in 96 well plates pre-coated with immobilized human (h)-αCD3 antibody (eBioscience) then differentiated to TH17 cells using h-αCD28, h-αIFNγ, h-αIL4, h-IL6, h-IL23, h-IL1β, h-TGFβ1 (eBioscience) and maintained in a cell culture incubator at 37° C. with 5% CO2 in TexMACS Medium (Miltenyi Biotec) supplemented with 1% Penicillin/Streptomycin (Lonza) over 5 days.
# (§2) RNA was isolated from TH17 cells and cDNA was synthesized using the Verso cDNA kit (Thermo Scientific) as per manufacturer's instructions. IL-17A, IL-17F, IL-21, IL-22, G-CSF, IL-23R and FOXP3 gene expression were determined for compound treated and untreated TH17 cell samples using Solaris qPCR Gene expression assays (Thermo Scientific) with an iCycler iQ Real-Time PCR Detection System (Bio-Rad). Individual gene expression was normalized to a panel of six reference genes (ACTB, TBP, HPRT1, PGK1, TFRC and PPIA) (Thermo Scientific) and analyzed by REST 2009 (Qiagen) in accordance to MIQE guidelines (Bustin et al. (2009) Clin. Chem, 55:611-622). The effects of compounds on TH17 cytokine mRNA levels are presented as fold change in gene expression of compound treated TH17 cells relative to DMSO treated cells in the table below.
# RORγ LBD [3] = target: T1, RORγ LBD; assay: TR-FRET co-repressor NCoR1-D2 interaction with RORγ LBD; type: biochemical
# From the text: (§3) The Time-Resolved Fluorescence Resonance Energy Transfer (TR-FRET) assay kit (Life Technologies) was used to measure compound efficacy to disrupt or enhance ligand-mediated interaction of the co-activator and co-repressor peptides with the purified GST-tagged (i) RORγ LBD or (ii) […]. The RORγ LBD and RORα LBD each have a basal level of interaction with the co-activator D22 or co-repressor NCoR1-D2 in the absence of ligand, thus it is possible to identify compounds that inhibit or induce RORγ and/or RORα co-activator/co-repressor interactions, thus determining RORα, RORγ, or RORα/RORγ compound selectivity. The assay was performed as per manufacturer's instructions and TR-FRET was assessed 2 and 20 hours post-assay initiation. Compounds were identified to (i) have no impact on either co-activator displacement or […] from the assessed LBD (ii) promote co-activator displacement from the assessed LBD (iii) promote co-repressor recruitment to the assessed LBD or (iv) concurrently promote co-activator displacement from the assessed LBD and co-repressor recruitment to the assessed LBD.
# RORα LBD [4] = target: T2, RORα LBD (Homo sapiens (Human), UniProt P35398); assay: TR-FRET co-activator D22 interaction with RORα LBD; type: biochemical
# From the text: as §3
# IL-22 = assay: Real-time qRT-PCR in TH17 cells: IL-22 gene expression; type: cell-based, human; design: key: A: No change in gene expression observed relative to DMSO treated Th17 cells; B: Decreased gene expression observed relative to DMSO treated Th17 cells; C: Increased gene expression observed relative to DMSO treated Th17 cells
# Description: as §1, §2
# RORγ LBD [5] = target: T1, RORγ LBD; assay: TR-FRET co-activator D22 interaction with RORγ LBD; type: biochemical
# From the text: as §3
# IL-17A [6] = assay: TH17 cytokine inhibition as measured by ELISA: IL-17A; type: cell-based; conditions: 120 h; human TH17 cells, 5 days differentiation, ELISA of supernatant
# Description: as §1
# (§4) Human CD4+ T cells were differentiated to TH17 cells as described in the presence or absence of various concentrations of compounds in a final concentration of 0.1% DMSO in TexMACS medium. Supernatants were collected and stored at −20° C. until they were to be assayed for IL-17A, IL-17F, IL-17AF, IL-21 and/or IL-22 levels as determined by Ready-Set-Go ELISA kits (eBioscience) as per manufacturer's instructions. Endpoint absorbance was read at 450 nm and 570 nm according to manufacturer's instructions (eBioscience) using a microplate reader (Perkin Elmer). The percentage of cytokine inhibition was calculated with reference to DMSO treated cells and the IC50s were determined by GraphPad Prism software and presented in the table below.
# IL-17F [7] = assay: TH17 cytokine inhibition as measured by ELISA: IL-17F; type: cell-based; conditions: 120 h; human TH17 cells, 5 days differentiation, ELISA of supernatant
# Description: as §1, §4
# RORα LBD [8] = target: T2, RORα LBD; assay: TR-FRET co-repressor NCoR1-D2 interaction with RORα LBD; type: biochemical
# From the text: as §3
# FOXP3 = assay: Real-time qRT-PCR in TH17 cells: FOXP3 gene expression; type: cell-based, human; design: key: A: No change in gene expression observed relative to DMSO treated Th17 cells; B: Decreased gene expression observed relative to DMSO treated Th17 cells; C: Increased gene expression observed relative to DMSO treated Th17 cells
# Description: as §1, §2
# IL-23R = assay: Real-time qRT-PCR in TH17 cells: IL-23R gene expression; type: cell-based, human; design: key: A: No change in gene expression observed relative to DMSO treated Th17 cells; B: Decreased gene expression observed relative to DMSO treated Th17 cells; C: Increased gene expression observed relative to DMSO treated Th17 cells
# Description: as §1, §2
# IL-17A [9] = assay: Real-time qRT-PCR in TH17 cells: IL-17A gene expression; type: cell-based, human; design: key: A: No change in gene expression observed relative to DMSO treated Th17 cells; B: Decreased gene expression observed relative to DMSO treated Th17 cells; C: Increased gene expression observed relative to DMSO treated Th17 cells
# Description: as §1, §2
# [10] = 2 hr, read-out: RORγ EC50 NCoR1-D2 co-repressor recruitment 2 hr
# [11] = 20 hr, read-out: RORγ EC50 NCoR1-D2 co-repressor recruitment 20 hr
# [12] = 2 hr, read-out: RORα EC50 D22 co-activator displacement 2 hr
# [13] = 20 hr, read-out: RORα EC50 D22 co-activator displacement 20 hr
# [14] = 2 hr, read-out: RORγ EC50 D22 co-activator displacement 2 hr
# [15] = 20 hr, read-out: RORγ EC50 D22 co-activator displacement 20 hr
# [16] = 2 hr, read-out: RORα EC50 NCoR1-D2 co-repressor recruitment 2 hr
# [17] = 20 hr, read-out: RORα EC50 NCoR1-D2 co-repressor recruitment 20 hr
# T2 sequence (P35398 272-510): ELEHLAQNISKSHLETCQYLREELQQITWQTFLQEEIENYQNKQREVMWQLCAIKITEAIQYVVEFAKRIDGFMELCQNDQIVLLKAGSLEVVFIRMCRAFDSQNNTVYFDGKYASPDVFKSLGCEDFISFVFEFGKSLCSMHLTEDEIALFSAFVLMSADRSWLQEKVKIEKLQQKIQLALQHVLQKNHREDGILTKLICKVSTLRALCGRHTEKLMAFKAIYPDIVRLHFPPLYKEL
# T1 sequence (P51449 269-508): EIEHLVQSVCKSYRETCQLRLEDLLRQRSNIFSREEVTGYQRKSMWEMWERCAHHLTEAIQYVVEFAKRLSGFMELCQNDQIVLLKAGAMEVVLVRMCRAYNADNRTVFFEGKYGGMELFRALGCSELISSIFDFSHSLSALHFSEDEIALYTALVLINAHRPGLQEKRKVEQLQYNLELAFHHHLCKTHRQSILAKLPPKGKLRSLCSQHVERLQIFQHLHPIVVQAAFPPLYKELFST
SMILES,IC50 (RORγ LBD [1]) [µM],Fold change in mRNA level of compound treated TH17 cells relative to DMSO treated cells IL-17F (IL-17F [2]),EC50 (RORγ LBD [3]; [10]) [µM],EC50 (RORγ LBD [3]; [11]) [µM],EC50 (RORα LBD [4]; [12]) [µM],EC50 (RORα LBD [4]; [13]) [µM],Fold change in mRNA level of compound treated TH17 cells relative to DMSO treated cells IL-22 (IL-22),EC50 (RORγ LBD [5]; [14]) [µM],EC50 (RORγ LBD [5]; [15]) [µM],IC50 (IL-17A [6]) [µM],IC50 (IL-17F [7]) [µM],EC50 (RORα LBD [8]; [16]) [µM],EC50 (RORα LBD [8]; [17]) [µM],Fold change in mRNA level of compound treated TH17 cells relative to DMSO treated cells FOXP3 (FOXP3),Fold change in mRNA level of compound treated TH17 cells relative to DMSO treated cells IL-23R (IL-23R),Fold change in mRNA level of compound treated TH17 cells relative to DMSO treated cells IL-17A (IL-17A [9])
"CC(=O)Nc1ccc2c(c1)CCCN2Cc1ccc(C(O)(C(F)(F)F)C(F)(F)F)cc1 [Example 2, N-(1-(4-(1,1,1,3,3,3-hexafluoro-2-hydroxypropan-2-yl)benzyl)-1,2,3,4-tetrahydroquinolin-6-yl)acetamide]",< 10,A,> 30,> 30,< 30,> 30,A,< 30,< 30,< 10,< 10,> 30,> 30,A,A,A
"CC(=O)Nc1ccc2c(c1)CCN2Cc1ccc(C(O)(C(F)(F)F)C(F)(F)F)cc1 [Example 4, N-(1-(4-(1,1,1,3,3,3-hexafluoro-2-hydroxypropan-2-yl)benzyl)indolin-5-yl)acetamide]",< 10,B,< 30,< 30,> 30,> 30,C,< 30,< 30,< 10,< 10,> 30,> 30,C,B,B
"CS(=O)(=O)Nc1ccc2c(c1)CCCN2Cc1ccc(C(O)(C(F)(F)F)C(F)(F)F)cc1 [Example 5, N-(1-(4-(1,1,1,3,3,3-hexafluoro-2-hydroxypropan-2-yl)benzyl)-1,2,3,4-tetrahydroquinolin-6-yl)methanesulfonamide]",< 10,B,< 30,< 30,< 30,< 30,A,> 30,< 30,< 10,< 10,< 30,< 30,C,B,B
